According to PubChem BioAssay (NCI):
Several values for one entry are separate records, joined by “and”; a condition that tells them apart may be missing. Identical values can stand only once.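 Step 1: Grow cells in 96-well plates. Step 2: Expose to compound for 48 hours at 5 concentrations. Step 3: Interpolate endpoints linearly; if unreached, use highest concentration. Abbreviation: GI50, concentration required for 50% inhibition of growth. TGI denotes the concentration required for complete inhibition of growth.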

How the values were obtained:
Test in all cases: NCI anticancer screen, dose series, 48 h
SR leukemia = tested on: SR leukemia
SF-295 CNS = tested on: SF-295 CNS
EKVX NSCLC = tested on: EKVX NSCLC
OVCAR-5 ovarian = tested on: OVCAR-5 ovarian
HL-60(TB) leukemia = tested on: HL-60(TB) leukemia
SN12C renal = tested on: SN12C renal
LOX IMVI melanoma = tested on: LOX IMVI melanoma
IGROV1 ovarian = tested on: IGROV1 ovarian
NCI-H522 lung = tested on: NCI-H522 lung
OVCAR-3 ovarian = tested on: OVCAR-3 ovarian

`COC(=O)N/N=C(\C)C(CN(C)C)C(c1ccccc1)c1c(O)c2ccccc2oc1=O` (stereo unspecified) was tested. Which TGI (SR leukemia) did it give?
The TGI was > 100 µM.

And the TGI (SF-295 CNS)?
Its TGI is > 100 µM.

What about the TGI (EKVX NSCLC) of the same molecule?
Its TGI is > 100 µM.

And the TGI (OVCAR-5 ovarian)?
The TGI was > 100 µM.

And the TGI (HL-60(TB) leukemia)?
The TGI was > 100 µM.

And the TGI (SN12C renal)?
Its TGI is > 100 µM.

And the TGI (LOX IMVI melanoma)?
Its TGI is > 100 µM.

And the TGI (IGROV1 ovarian)?
The TGI was > 100 µM.

What about the TGI (NCI-H522 lung) of the same molecule?
The TGI was > 100 µM.

With `CCc1nc2cc(/C=C/C(=O)NO)ccc2c(=O)n1CCc1ccc(OC)cc1` as the molecule, how does the GI50 (SR leukemia) read?
The GI50 was 1.94 µM.

What about the TGI (SR leukemia) of the same molecule?
Its TGI is > 100 µM.

What about the GI50 (SF-295 CNS) of the same molecule?
Its GI50 is 2.16 µM.

And the TGI (SF-295 CNS)?
The TGI was 5.39 µM.

And the GI50 (EKVX NSCLC)?
Its GI50 is 3.91 µM.

What about the TGI (EKVX NSCLC) of the same molecule?
Its TGI is 43.9 µM.

What about the GI50 (OVCAR-5 ovarian) of the same molecule?
Its GI50 is 2.5 µM.

What about the TGI (OVCAR-5 ovarian) of the same molecule?
The TGI was 30 µM.

What about the GI50 (HL-60(TB) leukemia) of the same molecule?
The GI50 was 3.47 µM.

And the TGI (HL-60(TB) leukemia)?
Its TGI is > 100 µM.

And the GI50 (LOX IMVI melanoma)?
Its GI50 is 1.68 µM.

What about the TGI (LOX IMVI melanoma) of the same molecule?
The TGI was 3.19 µM.

And the GI50 (NCI-H522 lung)?
The GI50 was 1.43 µM.

And the TGI (NCI-H522 lung)?
The TGI was 4.66 µM.

What about the GI50 (OVCAR-3 ovarian) of the same molecule?
Its GI50 is 2.03 µM.

And the TGI (OVCAR-3 ovarian)?
The TGI was 7.19 µM.

Which results are given for `COc1ccc(-c2nn3ncccc3c2-c2ccnc(Nc3ccc4c(c3)OCCO4)n2)cc1`?
GI50 (SR leukemia): 16.1 µM; TGI (SR leukemia): > 25 µM; GI50 (SF-295 CNS): > 17.2 µM; TGI (SF-295 CNS): > 25 µM; GI50 (EKVX NSCLC): 9.61 µM; TGI (EKVX NSCLC): > 25 µM; GI50 (OVCAR-5 ovarian): 5.72 µM; TGI (OVCAR-5 ovarian): > 25 µM; GI50 (HL-60(TB) leukemia): 12.9 µM; TGI (HL-60(TB) leukemia): > 25 µM; GI50 (SN12C renal): 6.5 µM; TGI (SN12C renal): > 25 µM; GI50 (LOX IMVI melanoma): 3.65 µM; TGI (LOX IMVI melanoma): > 25 µM; GI50 (IGROV1 ovarian): 2.17 µM; TGI (IGROV1 ovarian): > 19.6 µM; GI50 (NCI-H522 lung): 5.56 µM; TGI (NCI-H522 lung): 23 µM; GI50 (OVCAR-3 ovarian): 9.86 µM; TGI (OVCAR-3 ovarian): > 25 µM

What does the source list for `CCCCN1C(=O)/C(=c2\sc3n(c2=O)C2C(NN=3)N(CC)C(=O)N2CC)c2ccccc21` (stereo unspecified)?
GI50 (SR leukemia): 0.36 µM; GI50 (SF-295 CNS): 0.456 µM; TGI (SF-295 CNS): 2.26 µM; GI50 (EKVX NSCLC): 1.38 µM; TGI (EKVX NSCLC): > 100 µM; GI50 (HL-60(TB) leukemia): 1.05 µM; TGI (HL-60(TB) leukemia): 3.46 µM; GI50 (IGROV1 ovarian): 0.764 µM; TGI (IGROV1 ovarian): 3.6 µM; GI50 (NCI-H522 lung): 0.508 µM; TGI (NCI-H522 lung): 3.44 µM

Which TGI (SR leukemia) does the source give for `CCN(CC)c1nc(NC2CCCCC2)c2nc(N(CC)CC)nc(NC3CCCCC3)c2n1` here?
The TGI was > 100 µM.

What about the TGI (SF-295 CNS) of the same molecule?
Its TGI is > 100 µM.

And the TGI (EKVX NSCLC)?
Its TGI is > 100 µM.

And the TGI (OVCAR-5 ovarian)?
Its TGI is > 100 µM.

What about the TGI (HL-60(TB) leukemia) of the same molecule?
Its TGI is > 100 µM.

What about the TGI (SN12C renal) of the same molecule?
The TGI was > 100 µM.

And the TGI (IGROV1 ovarian)?
The TGI was > 100 µM.

What about the TGI (OVCAR-3 ovarian) of the same molecule?
The TGI was > 100 µM.

How did the TGI (SR leukemia) turn out when `COC(=O)/C(=C/c1ccc(OC)cc1)C(C(=O)O)=C1CCCCC1` was run?
The TGI was > 100 µM.

And the TGI (SF-295 CNS)?
The TGI was > 100 µM.

And the TGI (EKVX NSCLC)?
The TGI was > 100 µM.

And the TGI (OVCAR-5 ovarian)?
Its TGI is > 100 µM.

And the TGI (HL-60(TB) leukemia)?
The TGI was > 100 µM.

And the TGI (SN12C renal)?
The TGI was > 100 µM.

What about the TGI (LOX IMVI melanoma) of the same molecule?
The TGI was > 100 µM.

And the TGI (IGROV1 ovarian)?
Its TGI is > 100 µM.

And the TGI (NCI-H522 lung)?
Its TGI is > 100 µM.

Which results are given for `Nc1ccccc1C(=O)NC(=O)Nc1ccc(Oc2ncc(Br)cn2)c(Cl)c1`?
TGI (SR leukemia): 1.5 µM; TGI (SF-295 CNS): 0.127 µM; GI50 (EKVX NSCLC): 0.0198 µM; TGI (EKVX NSCLC): 29.6 µM; TGI (OVCAR-5 ovarian): 51.7 µM; GI50 (HL-60(TB) leukemia): 0.00489 µM; TGI (HL-60(TB) leukemia): 0.0451 µM and 0.232 µM; TGI (SN12C renal): 17.4 µM; TGI (LOX IMVI melanoma): 24.1 µM; TGI (IGROV1 ovarian): 7.83 µM

What does the source list for `COc1cc(Nc2ncnc(Nc3ccc4c(n3)NC(=O)C(C)(C)O4)n2)cc(OC)c1OC`?
GI50 (SR leukemia): 2.24 µM; TGI (SR leukemia): > 100 µM; GI50 (SF-295 CNS): 0.754 µM; TGI (SF-295 CNS): > 100 µM; GI50 (OVCAR-5 ovarian): 0.602 µM; TGI (OVCAR-5 ovarian): > 100 µM; GI50 (HL-60(TB) leukemia): 4.52 µM; TGI (HL-60(TB) leukemia): > 100 µM; GI50 (SN12C renal): 0.411 µM; TGI (SN12C renal): > 100 µM; GI50 (LOX IMVI melanoma): 0.633 µM; TGI (LOX IMVI melanoma): > 100 µM; GI50 (IGROV1 ovarian): 0.247 µM; TGI (IGROV1 ovarian): 1.72 µM; GI50 (NCI-H522 lung): 0.625 µM; TGI (NCI-H522 lung): 11.2 µM; GI50 (OVCAR-3 ovarian): 3.46 µM; TGI (OVCAR-3 ovarian): > 100 µM
